This assay concerns the target F508delCFTR (Homo sapiens, UniProt P13569, DEL508-508). As to the kind of experiment: Cell Surface Expression-Horse Radish Peroxidase (CSE-HRP) assay. The class given is cell-based. Also on record: expressed in transfected cells; host or cells: CFBE41o- human lung derived epithelial cell line, doxycycline-inducible. The following applies: CFBE4lo-F508delCFTR-HRP cells; for EC50: 18-24 hours at 33° C., 8-point curve, highest concentration 20 μM, luminescence readout; for Emax / Maximum % activity (%): maximum % activity at any tested concentration, normalized to on-plate positive control (3 μM Example 1). The method, boiled down:
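Following 18-24 h compound exposure at 33° C. Expression was doxycycline-induced beforehand. % activity versus DMSO and a 3 μM corrector control gave maximum activity and EC50 from a variable-Hill sigmoidal fit.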

The text below walks through data of US9642831B2, “Substituted chromanes and method of use” (AbbVie S.á.r.l., priority 2014, dated 2017).

F508delCFTR, sequence (P13569 with tags, fused parts or gaps DEL508-508): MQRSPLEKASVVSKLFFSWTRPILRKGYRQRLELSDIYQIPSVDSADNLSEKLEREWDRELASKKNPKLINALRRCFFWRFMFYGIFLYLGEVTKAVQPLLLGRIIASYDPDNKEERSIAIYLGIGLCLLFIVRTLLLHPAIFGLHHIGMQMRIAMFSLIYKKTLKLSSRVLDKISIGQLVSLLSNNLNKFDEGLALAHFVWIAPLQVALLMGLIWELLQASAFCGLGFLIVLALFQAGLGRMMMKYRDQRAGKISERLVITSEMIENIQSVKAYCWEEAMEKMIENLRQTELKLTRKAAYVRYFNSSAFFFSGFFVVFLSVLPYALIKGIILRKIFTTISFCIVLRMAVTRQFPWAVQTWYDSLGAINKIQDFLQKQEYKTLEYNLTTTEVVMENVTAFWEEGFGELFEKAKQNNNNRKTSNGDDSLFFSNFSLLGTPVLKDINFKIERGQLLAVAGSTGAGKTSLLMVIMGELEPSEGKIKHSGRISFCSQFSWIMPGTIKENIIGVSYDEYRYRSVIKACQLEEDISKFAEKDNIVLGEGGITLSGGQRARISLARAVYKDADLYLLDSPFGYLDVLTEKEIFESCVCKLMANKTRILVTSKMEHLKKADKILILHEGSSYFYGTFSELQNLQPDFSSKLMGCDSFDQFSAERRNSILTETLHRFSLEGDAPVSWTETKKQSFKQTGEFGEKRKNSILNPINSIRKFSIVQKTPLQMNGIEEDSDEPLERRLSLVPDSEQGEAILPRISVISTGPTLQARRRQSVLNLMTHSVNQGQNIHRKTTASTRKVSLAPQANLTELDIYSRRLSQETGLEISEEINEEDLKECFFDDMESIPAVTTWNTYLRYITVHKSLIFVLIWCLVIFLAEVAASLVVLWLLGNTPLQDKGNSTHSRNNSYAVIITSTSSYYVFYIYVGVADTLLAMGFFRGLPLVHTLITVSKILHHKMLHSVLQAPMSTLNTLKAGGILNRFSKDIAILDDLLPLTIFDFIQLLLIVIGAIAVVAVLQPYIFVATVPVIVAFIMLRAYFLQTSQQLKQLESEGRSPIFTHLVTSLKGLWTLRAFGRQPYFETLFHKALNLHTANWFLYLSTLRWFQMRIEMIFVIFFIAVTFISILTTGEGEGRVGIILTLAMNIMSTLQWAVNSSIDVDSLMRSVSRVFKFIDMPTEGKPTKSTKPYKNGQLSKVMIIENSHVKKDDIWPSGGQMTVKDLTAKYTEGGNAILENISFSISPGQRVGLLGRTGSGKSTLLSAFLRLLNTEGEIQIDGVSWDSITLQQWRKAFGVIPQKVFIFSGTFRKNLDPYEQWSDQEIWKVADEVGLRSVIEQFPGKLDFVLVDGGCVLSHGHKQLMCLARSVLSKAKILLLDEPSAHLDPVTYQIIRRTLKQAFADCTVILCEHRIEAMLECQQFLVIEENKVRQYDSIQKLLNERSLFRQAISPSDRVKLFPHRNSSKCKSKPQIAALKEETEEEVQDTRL

As a reminder, the EC50 is the concentration giving half of the maximal effect. Higher therefore signals lower potency in that assay. In general, Emax refers to the size of the effect at its maximum, as opposed to the concentration needed. Compound `COc1ccc2c(c1)O[C@@H](C(=O)NC(CO)CO)C[C@@H]2NC(=O)C1(c2ccc3c(c2)OC(F)(F)O3)CC1` (racemic) [Example 199, rac-(2R,4S)-4-({[1-(2,2-difluoro-1,3-benzodioxol-5-yl)cyclopropyl]carbonyl}amino)-N-(1,3-dihydroxypropan-2-yl)-7-methoxy-3,4-dihydro-2H-chromene-2-carboxamide] returned an EC50 of 6.89 µM and an Emax of 27%.
As to `COc1ccc2c(c1)O[C@@H](C(=O)NC1c3ccccc3CC1O)C[C@@H]2NC(=O)C1(c2ccc3c(c2)OC(F)(F)O3)CC1` (mixture of isomers) [Example 200, rac-(2R,4S)-4-({[1-(2,2-difluoro-1,3-benzodioxol-5-yl)cyclopropyl]carbonyl}amino)-N-(2-hydroxy-2,3-dihydro-1H-inden-1-yl)-7-methoxy-3,4-dihydro-2H-chromene-2-carboxamide], the midpoint of the response, the EC50, lay at 2.35 µM and the Emax worked out at 61%.
In turn, `COc1ccc2c(c1)O[C@@H](C(=O)N1CCC(C(=O)O)C1)C[C@@H]2NC(=O)C1(c2ccc3c(c2)OC(F)(F)O3)CC1` (mixture of isomers) [Example 201, rac-1-{[(2R,4S)-4-({[1-(2,2-difluoro-1,3-benzodioxol-5-yl)cyclopropyl]carbonyl}amino)-7-methoxy-3,4-dihydro-2H-chromen-2-yl]carbonyl}pyrrolidine-3-carboxylic acid] returned an EC50 of 7.92 µM and an Emax of 35%.
Regarding `CCOC(=O)c1csc([C@H]2C[C@H](NC(=O)C3(c4ccc5c(c4)OC(F)(F)O5)CC3)c3ccccc3O2)n1` (relative stereo) [Example 141, ethyl rel-2-[(2R,4S)-4-({[1-(2,2-difluoro-1,3-benzodioxol-5-yl)cyclopropyl]carbonyl}amino)-3,4-dihydro-2H-chromen-2-yl]-1,3-thiazole-4-carboxylate], the response was half-maximal at 3.05 µM (EC50) and the Emax was determined as 54%.
The matching figures for `O=C(O)c1csc([C@H]2C[C@H](NC(=O)C3(c4ccc5c(c4)OC(F)(F)O5)CC3)c3ccccc3O2)n1` (relative stereo) [Example 144, rel-2-[(2R,4S)-4-({[1-(2,2-difluoro-1,3-benzodioxol-5-yl)cyclopropyl]carbonyl}amino)-3,4-dihydro-2H-chromen-2-yl]-1,3-thiazole-4-carboxylic acid]: above 20 µM and 11%.
On the same counts, the results for `COc1ccc2c(c1)O[C@@H](c1ccc(C(=O)O)cn1)C[C@H]2NC(=O)C1(c2ccc3c(c2)OC(F)(F)O3)CC1` (relative stereo) [Example 165, rel-6-[(2R,4R)-4-({[1-(2,2-difluoro-1,3-benzodioxol-5-yl)cyclopropyl]carbonyl}amino)-7-methoxy-3,4-dihydro-2H-chromen-2-yl]pyridine-3-carboxylic acid] are 0.09 µM and 123%.
For `O=C(O)c1cnc(C2CC(NC(=O)C3(c4ccc5c(c4)OC(F)(F)O5)CC3)c3ccccc3O2)s1` (single isomer, unassigned) [Example 133], the concentration giving a half-maximal response (EC50) turned out to be 7.02 µM and the “Maximum % activity (%)” value is given as 25%.
On the same counts, the results for `O=C(O)c1cnc(C2CC(NC(=O)C3(c4ccc5c(c4)OC(F)(F)O5)CC3)c3ccccc3O2)s1` (single isomer, unassigned) [Example 136] are 3.36 µM and 90%.
In turn, `CCOC(=O)c1cccc([C@@H]2C[C@H](NC(=O)C3(c4ccc5c(c4)OC(F)(F)O5)CC3)c3ccncc3O2)c1` (stereo in doubt) [Example 24, ethyl rel-3-[(2S,4S)-4-({[1-(2,2-difluoro-1,3-benzodioxol-5-yl)cyclopropyl]carbonyl}amino)-3,4-dihydro-2H-pyrano[2,3-c]pyridin-2-yl]benzoate] registered an EC50 of 8.37 µM and an Emax of 63%.
The matching figures for `CCOC(=O)c1cccc([C@H]2C[C@@H](NC(=O)C3(c4ccc5c(c4)OC(F)(F)O5)CC3)c3ccncc3O2)c1` (stereo in doubt) [Example 25, ethyl rel-3-[(2R,4R)-4-({[1-(2,2-difluoro-1,3-benzodioxol-5-yl)cyclopropyl]carbonyl}amino)-3,4-dihydro-2H-pyrano[2,3-c]pyridin-2-yl]benzoate]: 3.91 µM and 41%.
On to `CCOC(=O)c1cnc([C@@H]2C[C@H](NC(=O)C3(c4ccc5c(c4)OC(F)(F)O5)CC3)c3ccccc3O2)s1` (stereo in doubt) [Example 132, ethyl rel-2-[(2S,4S)-4-({[1-(2,2-difluoro-1,3-benzodioxol-5-yl)cyclopropyl]carbonyl}amino)-3,4-dihydro-2H-chromen-2-yl]-1,3-thiazole-5-carboxylate], for which the EC50 was found to be 3.44 µM and the Emax turned out to be 86%.
`CCOC(=O)c1cnc([C@H]2C[C@@H](NC(=O)C3(c4ccc5c(c4)OC(F)(F)O5)CC3)c3ccccc3O2)s1` (stereo in doubt) [Example 135, ethyl rel-2-[(2R,4R)-4-({[1-(2,2-difluoro-1,3-benzodioxol-5-yl)cyclopropyl]carbonyl}amino)-3,4-dihydro-2H-chromen-2-yl]-1,3-thiazole-5-carboxylate]: the EC50 was 1.51 µM and the Emax is 97%.
`CCOC(=O)c1csc([C@@H]2C[C@H](NC(=O)C3(c4ccc5c(c4)OC(F)(F)O5)CC3)c3ccccc3O2)n1` (stereo in doubt) [Example 140, ethyl rel-2-[(2S,4S)-4-({[1-(2,2-difluoro-1,3-benzodioxol-5-yl)cyclopropyl]carbonyl}amino)-3,4-dihydro-2H-chromen-2-yl]-1,3-thiazole-4-carboxylate] displayed an EC50 of 2.28 µM and an Emax of 53%.
As to `CCOC(=O)c1csc([C@H]2C[C@@H](NC(=O)C3(c4ccc5c(c4)OC(F)(F)O5)CC3)c3ccccc3O2)n1` (stereo in doubt) [Example 142, ethyl rel-2-[(2R,4R)-4-({[1-(2,2-difluoro-1,3-benzodioxol-5-yl)cyclopropyl]carbonyl}amino)-3,4-dihydro-2H-chromen-2-yl]-1,3-thiazole-4-carboxylate], a half-maximal response (EC50) required 1.18 µM and the Emax is 87%.
Compound `O=C(O)c1csc([C@@H]2C[C@H](NC(=O)C3(c4ccc5c(c4)OC(F)(F)O5)CC3)c3ccccc3O2)n1` (stereo in doubt) [Example 143, rel-2-[(2S,4S)-4-({[1-(2,2-difluoro-1,3-benzodioxol-5-yl)cyclopropyl]carbonyl}amino)-3,4-dihydro-2H-chromen-2-yl]-1,3-thiazole-4-carboxylic acid] showed an EC50 of 8.5 µM and an Emax of 27%.
On the same counts, the results for `O=C(O)c1csc([C@H]2C[C@@H](NC(=O)C3(c4ccc5c(c4)OC(F)(F)O5)CC3)c3ccccc3O2)n1` (stereo in doubt) [Example 145, rel-2-[(2R,4R)-4-({[1-(2,2-difluoro-1,3-benzodioxol-5-yl)cyclopropyl]carbonyl}amino)-3,4-dihydro-2H-chromen-2-yl]-1,3-thiazole-4-carboxylic acid] are 2.45 µM and 96%.
`CCOC(=O)c1csc([C@H]2C[C@@H](NC(=O)C3(c4ccc5c(c4)OC(F)(F)O5)CC3)c3ccc(OC)cc3O2)n1` (stereo in doubt) [Example 155, ethyl rel-2-[(2R,4R)-4-({[1-(2,2-difluoro-1,3-benzodioxol-5-yl)cyclopropyl]carbonyl}amino)-7-methoxy-3,4-dihydro-2H-chromen-2-yl]-1,3-thiazole-4-carboxylate] registered an EC50 of 0.37 µM and an Emax of 108%.
On the same counts, the results for `COc1ccc2c(c1)O[C@@H](c1nc(C(=O)O)cs1)C[C@H]2NC(=O)C1(c2ccc3c(c2)OC(F)(F)O3)CC1` (stereo in doubt) [Example 156, rel-2-[(2R,4R)-4-({[1-(2,2-difluoro-1,3-benzodioxol-5-yl)cyclopropyl]carbonyl}amino)-7-methoxy-3,4-dihydro-2H-chromen-2-yl]-1,3-thiazole-4-carboxylic acid] are 1.23 µM and 112%.
The matching figures for `CCOC(=O)c1csc([C@@H]2C[C@H](NC(=O)C3(c4ccc5c(c4)OC(F)(F)O5)CC3)c3ccc(OC)cc3O2)n1` (stereo in doubt) [Example 157, ethyl rel-2-[(2S,4S)-4-({[1-(2,2-difluoro-1,3-benzodioxol-5-yl)cyclopropyl]carbonyl}amino)-7-methoxy-3,4-dihydro-2H-chromen-2-yl]-1,3-thiazole-4-carboxylate]: 1.52 µM and 77%.
On the same counts, the results for `COc1ccc2c(c1)O[C@H](c1nc(C(=O)O)cs1)C[C@@H]2NC(=O)C1(c2ccc3c(c2)OC(F)(F)O3)CC1` (stereo in doubt) [Example 158, rel-2-[(2S,4S)-4-({[1-(2,2-difluoro-1,3-benzodioxol-5-yl)cyclopropyl]carbonyl}amino)-7-methoxy-3,4-dihydro-2H-chromen-2-yl]-1,3-thiazole-4-carboxylic acid] are 6.65 µM and 101%.
As for `COC(=O)c1ccc([C@H]2C[C@H](NC(=O)C3(c4ccc5c(c4)OC(F)(F)O5)CC3)c3ccc(OC)cc3O2)nc1` (stereo in doubt) [Example 159, methyl rel-6-[(2R,4S)-4-({[1-(2,2-difluoro-1,3-benzodioxol-5-yl)cyclopropyl]carbonyl}amino)-7-methoxy-3,4-dihydro-2H-chromen-2-yl]pyridine-3-carboxylate], the EC50 stood at 1.36 µM and the Emax was determined as 92%.
